Measurements from patent US20230203058A1, “MACROCYCLIC DIAMINE DERIVATIVES AS ENT INHIBITORS FOR THE TREATMENT OF CANCERS, AND COMBINATION THEREOF WITH ADENOSINE RECEPTOR ANTAGONISTS” (ITEOS BELGIUM SA, priority 2020, published 2023).
Read-outs that look alike come from different tables or passages of the source.

Assays:
human T cells = test: T cell stimulation assay (Example III, FIG. 1); assay type: cell-based; details: ATP 100 µM
Protocol: FIG. 1A depicts a graph of log concentration (M) versus percent proliferation. Purified human T cells were activated with anti-CD3/CD28 dynabeads in the presence of ATP (100 µM) as a source of adenosine for 96 h and then proliferation was assessed by CFSE dilution.
FIG. 1B depicts a graph of log concentration of ENT1 inhibitor (M) versus percent proliferation. Experiment performed as in FIG. A with the addition of HSA and AAG to the culture medium (final concentration 2 and 0.1%, respectively).
Peripheral blood mononuclear cells (PBMCs) were first isolated via centrifugation of fresh whole blood over Lymphoprep using SepMate-50 tubes (both from […] Technologies) according to the manufacturer’s instructions. Human T cells were then isolated from the PBMCs using the EasySep Human T cell Isolation Kit ([…] Technologies) according to the manufacturer’s instructions and the cells were cryopreserved in FBS with 10% DMSO until required.
Cryopreserved human T cells were thawed on the day of the experiment and resuspended in PBS with 10% FBS at approximately 1 × 10^7 cells/ml. This cell suspension was diluted 1:1 with 2 µM CFSE solution (ThermoFisher Scientific) in PBS and incubated for 5 minutes at room temperature. The labelling reaction was quenched by further addition of PBS with 10% FBS, and then the cells were washed into X-VIVO15 medium (Lonza) for use in the T cell assay.
CFSE-labelled T cells were plated at 2 × 10^4 cells per well in 384 well plates in the presence of ATP (100 µM, Sigma-Aldrich) as a source of adenosine. Activation was driven by the addition of Dynabeads Human T-Activator CD3/CD28 (ThermoFisher Scientific) at a ratio of 0,5 beads per T cell. ENT1 inhibitor molecules including the reference molecule dilazep (Tocris Bioscience) were added, the volume of the wells was adjusted to 50 µl with X-VIVO15 medium and the plates were cultured in a humidified incubator for 96 h at 37° C. with 5% CO2. In some experiments the culture was supplemented with human serum albumin (HSA) and alpha-1-acid glycoprotein (AAG, both Sigma-Aldrich) at final concentrations of 2 and 0,1%, respectively.
Analysis of proliferation via CSFE dilution was performed by flow cytometry using a BD LSR Fortessa with data analysis on FlowJo (BD Biosciences).

human ENT1 = molecular target: T1, human ENT1 (Homo sapiens, UniProt Q99808); test: ENT1 binding assay (competition with Sahenta-DY647 on JAR cells); parameters: JAR cells expressing ENT1 were bought from ATCC® (HTB-144TM); host or cells: JAR cells (human choriocarcinoma line; whole cells); details: competition with Sahenta-DY647 100 nM, 4° C.
T1 sequence (Q99808 1-456): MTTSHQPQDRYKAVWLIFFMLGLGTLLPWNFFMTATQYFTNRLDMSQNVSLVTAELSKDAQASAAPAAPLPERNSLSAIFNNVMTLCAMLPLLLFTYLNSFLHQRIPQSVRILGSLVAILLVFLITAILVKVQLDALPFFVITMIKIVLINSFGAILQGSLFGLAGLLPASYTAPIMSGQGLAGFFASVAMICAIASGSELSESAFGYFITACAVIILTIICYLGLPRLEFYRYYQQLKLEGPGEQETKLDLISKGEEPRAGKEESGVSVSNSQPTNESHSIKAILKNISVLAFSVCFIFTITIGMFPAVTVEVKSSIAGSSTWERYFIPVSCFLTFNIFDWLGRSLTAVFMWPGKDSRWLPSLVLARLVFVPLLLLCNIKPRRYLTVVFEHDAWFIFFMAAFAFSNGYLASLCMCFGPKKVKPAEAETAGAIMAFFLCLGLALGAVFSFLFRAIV
How it was run: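 Competition binding on intact JAR cells (50000 per well) in HBSS with 10 mM Hepes and 0.1% BSA. Cells pre-incubated with compound 30 min at 4 °C, then Sahenta-DY647 added at its IC90 (100 nM) for another 30 min at 4 °C; after washing, fluorescence read at Ex 630/Em 670 nm.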

[1] = anti-CD3/CD28 dynabeads, 96 h (FIG. 1A), read-out: IC50 of restoration of T cell proliferation
[2] = with HSA 2% and AAG 0,1% (FIG. 1B), read-out: IC50 of restoration of T cell proliferation under high protein binding conditions

| SMILES | IC50 (human T cells; [1]) | IC50 (human T cells; [2]) | IC50 (human ENT1) |
| --- | --- | --- | --- |
| COc1cc(C(=O)OC2CCCOc3cc(cc(OC)c3OC)C(=O)N(C)CCCN3CCCN(CC2)CC3)cc(OC)c1OC (stereo not drawn) [Compound 11, 74,75-dimethoxy-5-methyl-6-oxo-8-oxa-5-aza-1(1,4)-diazepana-7(1,3)-benzenacyclotetradecaphane-12-yl 3,4,5-trimethoxybenzoate] | 7 nM | 125 nM | 1 to 20 nM |
| COc1cc(C(=O)O[C@H]2CCCOc3cc(cc(OC)c3OC)C(=O)OCCCN3CCCN(CC2)CC3)cc(OC)c1OC [Compound 2, (12S)-74,75-dimethoxy-6-oxo-5,8-dioxa-1(1,4)-diazepana-7(1,3)-benzenacyclotetradecaphane-12-yl 3,4,5-trimethoxybenzoate] | 0.3 nM | 2 nM | 1 to 20 nM |
